The text below walks through data of ChEMBL document CHEMBL1201862, “PubChem BioAssay data set” (2004).

Test systems include 786-0; COLO 205; HCT-15; HL-60; HOP-92; Malme-3M; NCI-H23; OVCAR-3; PC-3; RPMI-8226; RXF 393; SF-295; SK-OV-3; SN12C; SNB-19; SNB-75; SR; T47D; TK-10; UACC-62.
Holding throughout (assay): NCI-60 cell line screen, 48 h

Molecules are shown by their SMILES.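 Each compound was tested at five concentrations against cells in 96-well plates for 48 hours. GI50: concentration for 50% inhibition of growth.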 The source made the active and inactive calls. Rule as the data show it: active = GI50 up to about 1.1 µM and inactive = higher. Bounds are passed on as bounds.

Consider `COc1ccc(CC2NCCc3cc(OC)c(OC)cc32)cc1Br` (configuration not stated), for which the GI50 in the assay with 786-0 was 39.4 µM (inactive); with COLO 205, 16.8 µM (inactive); with HCT-15 it was greater than 100 µM; in the assay on HL-60, 14 µM (inactive); with HOP-92, 15.1 µM (inactive); with Malme-3M it was 17.3 µM (inactive). In addition, the GI50 in the assay on NCI-H23 was 23 µM (inactive); with OVCAR-3, 76.6 µM (inactive); in the assay with PC-3, 72.4 µM (inactive); in the assay with RPMI-8226 it was 18.5 µM (inactive); with RXF 393, 15.1 µM (inactive); in the assay on SF-295, 21 µM (inactive). Also, the GI50 was 96.4 µM (inactive) with SK-OV-3; 36.1 µM (inactive) in the assay with SN12C; 78.3 µM (inactive) with SNB-19; 24.3 µM (inactive) in the assay with SNB-75; 23.9 µM (inactive) with SR; 27.9 µM (inactive) with T47D. The GI50 is 25.6 µM (inactive) in the assay on TK-10 and 28.9 µM (inactive) with UACC-62.

As to `CN(C)[C@H]1CC[C@H]2[C@@H]3CCC4C[C@@H](NC(=O)NC(Cc5ccccc5)c5nccs5)CC[C@]4(C)[C@H]3CC[C@]12C` (some centres not stated), the GI50 in the assay with 786-0 is 0.512 µM (active); with COLO 205, 0.82 µM (active); with HCT-15, 0.687 µM; in the assay on HL-60 it was 0.218 µM (active); in the assay with HOP-92 it was 1.53 µM (inactive); in the assay with Malme-3M, 1.85 µM (inactive). Also, the GI50 in the assay with NCI-H23 was 1.77 µM (inactive); with OVCAR-3 it was 0.853 µM (active); in the assay with PC-3, 0.509 µM (active); with RPMI-8226 it was 0.792 µM (active); in the assay on RXF 393 it was 1.54 µM (inactive); in the assay with SF-295, 0.757 µM (active). Besides, the GI50 was 1.67 µM (inactive) with SK-OV-3; 0.348 µM (active) in the assay on SN12C; 1.79 µM (inactive) in the assay on SNB-19; 1.75 µM (inactive) in the assay on SNB-75; 1.51 µM (inactive) in the assay with SR; 1.76 µM (inactive) in the assay on T47D. Further, the GI50 with TK-10 was 2.04 µM (inactive); in the assay with UACC-62, 1.92 µM (inactive).

As to `CCCCCCN(C(=O)Oc1ccccc1)C(C#N)c1ccccc1` (configuration not stated), the GI50 is > 100 µM (inactive) in the assay on 786-0; > 100 µM (inactive) with COLO 205; greater than 100 µM in the assay with HCT-15; > 100 µM (inactive) with HL-60; > 100 µM (inactive) with HOP-92; > 100 µM (inactive) in the assay with Malme-3M. For the same compound, the GI50 in the assay with NCI-H23, in the assay on OVCAR-3, in the assay on PC-3, in the assay with RPMI-8226, in the assay with RXF 393 and with SF-295 was > 100 µM (inactive) in each case. Further, the GI50 in the assay with SK-OV-3, in the assay with SN12C, in the assay on SNB-19, in the assay on SNB-75, in the assay with SR and in the assay on T47D was > 100 µM (inactive) throughout. For the same compound, the GI50 with TK-10 and in the assay on UACC-62 was > 100 µM (inactive) throughout.

On to `Cc1ccc(NC(=S)C#N)c(C)c1`, for which the GI50 was > 100 µM (inactive) in the assay with 786-0; > 84.1 µM (inactive) in the assay with COLO 205; greater than 92.7 µM in the assay on HCT-15; 20.5 µM (inactive) in the assay with HL-60; 74.8 µM (inactive) with HOP-92; 44.2 µM (inactive) in the assay with Malme-3M. Also, the GI50 in the assay with NCI-H23 is > 69.5 µM (inactive); in the assay on OVCAR-3, 37.7 µM (inactive); in the assay with PC-3, > 100 µM (inactive); in the assay with RPMI-8226 it was 21.3 µM (inactive); in the assay on RXF 393, > 100 µM (inactive); in the assay on SF-295, > 100 µM (inactive). The GI50 in the assay with SK-OV-3 was > 100 µM (inactive); in the assay with SN12C, > 100 µM (inactive); with SNB-19, > 100 µM (inactive); with SNB-75 it was > 82.4 µM (inactive); in the assay with SR it was 33.7 µM (inactive); in the assay on T47D it was 46 µM (inactive). Also, the GI50 is > 100 µM (inactive) with TK-10 and 97.3 µM (inactive) in the assay on UACC-62.

For `CC(=O)c1cccc(NC(=O)C(=O)NNc2nnc(S)n2N)c1`, the GI50 in the assay on 786-0 is 11.3 µM (inactive); in the assay on COLO 205, 14.2 µM (inactive); in the assay with HCT-15 it was 4.9 µM; in the assay with HL-60, 3.18 µM (inactive); in the assay with HOP-92 it was 13.9 µM (inactive); in the assay with Malme-3M, 1.93 µM (inactive). Moreover, the GI50 was 3.18 µM (inactive) in the assay with NCI-H23; 3.99 µM (inactive) in the assay with OVCAR-3; 3.27 µM (inactive) in the assay on PC-3; 13.6 µM (inactive) in the assay on RPMI-8226; 10.4 µM (inactive) in the assay with RXF 393; 4.14 µM (inactive) with SF-295. Also, the GI50 in the assay on SK-OV-3 is 20.5 µM (inactive); in the assay on SN12C, 7.4 µM (inactive); in the assay with SNB-19, 6.25 µM (inactive); in the assay on SNB-75 it was 7.29 µM (inactive); in the assay on SR, 3.61 µM (inactive); in the assay on T47D it was 3.5 µM (inactive). Besides, the GI50 is 25.9 µM (inactive) in the assay on TK-10 and 1.89 µM (inactive) with UACC-62.

Turning to `CC(=O)/N=C1/N(/C=C2\C(=O)Oc3ccccc3C2=O)C(=O)/C(=C/c2cccc(Cl)c2Cl)N1C`, the GI50 was 34.3 µM (inactive) with 786-0; 31.3 µM (inactive) in the assay with COLO 205; 9.82 µM in the assay on HCT-15; 3.99 µM (inactive) in the assay on HL-60; 0.0333 µM (active) with HOP-92; 33.6 µM (inactive) with Malme-3M. For the same compound, the GI50 is 23.9 µM (inactive) in the assay on NCI-H23; 1.39 µM (inactive) in the assay with OVCAR-3; 35.3 µM (inactive) in the assay with PC-3; 12.4 µM (inactive) in the assay on RPMI-8226; 31.6 µM (inactive) with RXF 393; 34.4 µM (inactive) with SF-295. Further, the GI50 was 17.2 µM (inactive) with SK-OV-3; 42.6 µM (inactive) in the assay on SN12C; 17.3 µM (inactive) in the assay with SNB-75; 10.8 µM (inactive) in the assay on SR; 32.1 µM (inactive) with T47D; 31 µM (inactive) with UACC-62.

`COCn1c2ccc(OC(C)=O)cc2c2c(=O)oc(C)nc21`: the GI50 is > 100 µM (inactive) with 786-0; > 100 µM (inactive) in the assay with COLO 205; greater than 100 µM in the assay with HCT-15; > 100 µM (inactive) with HL-60; > 100 µM (inactive) in the assay with HOP-92; > 100 µM (inactive) with Malme-3M. The GI50 with NCI-H23, with PC-3, in the assay with RPMI-8226, in the assay on RXF 393, with SF-295 and in the assay on SK-OV-3 was > 100 µM (inactive) in each case. For the same compound, the GI50 with SN12C, in the assay with SNB-19, in the assay on SNB-75, in the assay on SR, in the assay with T47D and in the assay on TK-10 was > 100 µM (inactive) in each case. For the same compound, the GI50 in the assay on UACC-62 is > 100 µM (inactive).
